One series deals with rats. Put plainly: toleration study in rats, 10 days oral. It is filed as in vivo, rat. Here is the method: Rats were given III orally by gavage at doses of 50, 150 and 300 mg/kg/day for 10 days.
A further series relates to IgG. Put plainly: passive cutaneous anaphylaxis (PCA) test, oral, IgG (hyperimmune antiserum) site. The class given is in vivo, rat. Conditions: Table I, 1 mg./kg. Here is the method:
The antiallergy property of the compounds of this invention is evaluated by the passive cutaneous anaphylaxis (PCA) test (Ovary, J. Immun., 81, 355, 1958). In the PCA test, normal animals are injected intradermally (i.d.) with antibodies contained in serum obtained from actively sensitized animals. The animals are then challenged intravenously with antigen mixed with a dye such as Evans' Blue. The increased capillary permeability caused by the antigen-antibody reaction causes the dye to leak from the site of the antibody injection. The test animals are then asphyxiated and the intensity of the reaction determined by measuring the diameter and intensity of the blue coloration on the inner surface of the animals' skin.
The PCA test is a measure of the anti-allergic (especially anti-asthmatic) activity of a compound. Compounds which inhibit a positive PCA test induced by the rat immunochemical counterpart of human immunoglobulin E (IgE), or reagin, are considered to have anti-allergic activity (C. Mota, Ann. N.Y. Acad. Sci., 103, 264 1963). (Reagin is primarily immunoglobulin E [IgE] and is the principal immunoglobulin responsible for allergic asthma, anaphylaxis, hay fever, food sensitivities and certain manifestations of drug sensitivities, although recent evidence ascribes to the IgG class of antibodies a significant role in the mediation of allergic diseases). Such compounds when administered to a sensitized subject, human or animal, prior to the time when the subject comes into contact with antigens or substances to which it is allergic, will prevent the allergic reaction which would otherwise occur. They, therefore, provide a method for the prophylactic treatment of allergy or anaphylactic reactions of a reagin mediated nature.
To put it another way, such compounds block the release of mediators resulting from the antigen-antibody (allergic) reaction as illustrated in the PCA test using rat homocytotropic antibody--a known correlate of human reaginic antibody. Inhibition of reaginic antigen-antibody reactions in rats, the test animal of the PCA test, is regarded as representative of inhibition of human reaginic antigen-antibody reactions which occur during allergic episodes.
The ability of agents to interfere with PCA reactions is measured in male Charles River Wistar rats, 170-210 g. Reaginic antiserum, rich in IgE antibodies, is prepared according to Petillo et al., Int. Arch. Allergy, 44, 309 (1973). Hyperimmune antiserum rich in IgG antibodies to hen egg albumin is prepared according to Orange et al., J. Exptl. Med., 127, 767 (1968). Forty-eight hours prior to antigen challenge, the reaginic antiserum is injected intradermally (i.d.) into the shaved skin of a normal rat's back; 5 hours before challenge the hyperimmune antisera is similarly injected. At a third site 60 mcg. histamine dihydrochloride and 0.5 mcg. serotonin creatinine sulfate are injected i.d. just prior to antigen challenge as a check for antihistaminic, antiserotonin and unspecific types of blockage; the compounds of the instant invention or saline are then administered i.v. and immediately followed by the challenge of 5 mg. egg albumen and 2.5 mg. Evans' Blue dye in saline. In the case of oral administration Evans' Blue dye and egg albumin are given 5 minutes after administration of the drug. Thirty minutes later the animals are asphyxiated using chloroform and the skin of the back removed and reversed for observation. A score is assigned each injection site equal to the product of the diameter of the site in mm. and a grade of 0.1, 0.5, 1, 2, 3 or 4 proportional to intensity of dye coloration. The scores for a given injection site are summed for each group of five animals and compared to the saline treated controls. The difference is expressed as percent blockage due to the compound employed. […]

Series [1] deals with pentagastrin-stimulated acid output. Put plainly: pentagastrin-stimulated acid output in Heidenhain pouch dogs. It is filed as in vivo, dog. As to conditions: 5 mg/kg, i.v.
The test system of the next series is point mutations. Put plainly: Ames test in vitro. It is filed as cell-based. A general note: In the Ames test, an excess of revertant colonies over the control signals mutagenicity.
The next series deals with dogs. Kind of series: dogs, intravenous five days, serum enzymes. It is filed as in vivo, dog. As to conditions: i.v. five days at 1, 3, 10, 3 and 3 mg/kg.
The nature of series [2]: stability (solid state, in admixture and in solution). It is filed as physicochemical. Conditions: pure solid state, with standard pharmaceutical diluents.
The subject of series [3] is cold-restraint stress gastric ulcer. Put plainly: cold-restraint stressed rat assay. It is filed as in vivo. The method, then:
The effectiveness of the products of this invention as anticulcer agents is determined by the so-called cold-restraint stressed rat assay. In this test nonfasted female rats (Charles River C-D strain) weighing 70-140 gms. are administered the drug or carrier (control animals) intraperitoneally (in saline solution containing 1% carboxymethylcellulose and 0.1% Tween 80) or orally (in water) three hours before being lightly anesthetized with ether and taped in the supine position to individual sheets of plexiglass. After recovery from anesthesia, the restrained animals are positioned horizontally in a refrigerator maintained at 10°-12° C. and three hours later sacrificed by cervical dislocation. The abdomen of each rat is opened, the pylorus clamped, the stomach inflated with saline via an oral tube, the esophagus clamped and the stomach excised. The stomachs are placed in a 0.4% formaldehyde solution for approximately 30 seconds to harden the outer layers and facilitate examination. Each stomach is then cut open along the greater curvature and the glandular portion (hind stomach) examined for damage. The number of gastric erosions, their severity and the color of the stomachs is recorded. […]

Setting [4] is: oral gavage 50, 150 and 300 mg/kg/day.

1 molecule from patent US4414388A, “1-Oxo-1H-thiazolo[3,2-a]pyrimidine-2-carboxamides” (Pfizer Inc., priority 1981, dated 1983) can be followed below.

For the molecule `O=C(Nc1nnn[nH]1)c1cnc2sc3c(n2c1=O)CCCC3` [compound III, N-(5-tetrazolyl)-1-oxo-1H-cyclohexenothiazolo[3,2-a]pyrimidine-2-carboxamide], the serum glutamic-pyruvic transaminase entry in the series on rats (highest dose (300 mg/kg/day)) was “slight increase”. Also, the “changes in clinical chemistry (other than serum glutamic-pyruvic transaminase)” value in the series on rats (setting [4]) was “no changes in clinical chemistry were observed”. In addition, in the series on rats (setting [4]), the “pathological changes on gross and microscopic evaluation of liver, kidney, heart and lung” value is given as “no resultant pathological changes”. In addition, the “Oral Activity (% of Protection) of Amides in the PCA Test, IgG 1 mg./kg.” value with IgG was 45%. Besides, in series [1], the pentagastrin-stimulated acid output result is reported as “does not affect pentagastrin-stimulated acid output”. In the series with point mutations, the “point mutations, Ames test” value is “did not induce point mutations”. Further, in the series with dogs, the serum enzyme levels result is “remained normal”. Moreover, the stability entry in series [2] is “exceptionally good stability”; in series [2] (listed as formula III), “highly stable”. In addition, the “potency in the cold-restraint stress gastric ulcer procedure and the ethanol-induced rat ulcer assay, in words” value in series [3] (oral) is given as “highly potent”. Also, the “potency in the cold-restraint stressed rat assay” value in series [3] (rat, in vivo) is “extremely potent”.
